Source: ChEMBL document CHEMBL4725449, “Brain Penetrable Inhibitors of Ceramide Galactosyltransferase for the Treatment of Lysosomal Storage Disorders” (ACS Med Chem Lett, 2020)

Experiments:
[1] = Half life in C57BL/6 mouse at 1 mg/kg, iv; format: ADME, organism-based; details: in vivo
[2] = Drug uptake in C57BL/6 mouse brain at 3 mg/kg, iv measured at 1 hr; format: ADME, organism-based; details: read-out: Drug uptake
[3] = Half life in Sprague-Dawley rat at 1 mg/kg, iv; format: ADME, organism-based; details: in vivo
[4] = Volume of distribution at steady state in C57BL/6 mouse at 1 mg/kg, iv; format: ADME, organism-based; details: in vivo, read-out: Vdss
[5] = Clearance in C57BL/6 mouse at 1 mg/kg, iv; format: ADME, organism-based; details: in vivo
[6] = (§1) In vivo inhibition of GalCerde novo synthesis in po dosed PN14 to PN21 days C57BL/6 mouse brain assessed as reduction in [13C] galactose incorporation into GalCer administered twice for 2 days and single dose at day 3 treated 1 hr prior to intraperitoneal injection of [13C] galactose measured after 5 hrs of last dose; format: functional; details: C57BL/6, 72 h, time 3 day
[7] = Half life in Beagle dog at 1 mg/kg, iv; format: ADME, organism-based, Canis lupus familiaris; details: in vivo
[8] = (§2) In vivo inhibition of GalCer de novo synthesis in adult C57BL/6 mouse kidney assessed as reduction in [13C] galactose incorporation into GalCer at 1 mg/kg, po via gavage treated with compound for 1 hr prior to intraperitoneal injection of [13C] galactose measured after 5 hrs of compound administration relative to control; format: functional
[9] = as §1, with “SFT de” for “GalCerde”, “SFT” for “GalCer”; format: functional; details: C57BL/6, 72 h, time 3 day
[10] = Volume of distribution at steady state in Sprague-Dawley rat at 1 mg/kg, iv; format: ADME, organism-based; details: in vivo, read-out: Vdss
[11] = Protein binding in C57BL/6 mouse plasma; format: ADME, cell-free; details: read-out: PPB
[12] = AUC (0 to last) in Beagle dog at 3 mg/kg, po; format: ADME, organism-based, Canis lupus familiaris; set-up: time 0 - last, route oral, dose 3 mg/kg; details: in vivo
[13] = as §2, with “at 3” for “at 1”; format: functional
[14] = as §2, with “at 30” for “at 1”; format: functional
[15] = Oral bioavailability in Sprague-Dawley rat at 3 mg/kg; format: ADME, organism-based; details: in vivo
[16] = Oral bioavailability in C57BL/6 mouse at 3 mg/kg; format: ADME, organism-based; details: in vivo
[17] = molecular target: T1, 2-hydroxyacylsphingosine 1-beta-galactosyltransferase (Mus musculus, UniProt Q64676); assay: Inhibition of mouse UGT8 assessed as redcution in GalCer accumulation
T1 sequence (Q64676 whole entry): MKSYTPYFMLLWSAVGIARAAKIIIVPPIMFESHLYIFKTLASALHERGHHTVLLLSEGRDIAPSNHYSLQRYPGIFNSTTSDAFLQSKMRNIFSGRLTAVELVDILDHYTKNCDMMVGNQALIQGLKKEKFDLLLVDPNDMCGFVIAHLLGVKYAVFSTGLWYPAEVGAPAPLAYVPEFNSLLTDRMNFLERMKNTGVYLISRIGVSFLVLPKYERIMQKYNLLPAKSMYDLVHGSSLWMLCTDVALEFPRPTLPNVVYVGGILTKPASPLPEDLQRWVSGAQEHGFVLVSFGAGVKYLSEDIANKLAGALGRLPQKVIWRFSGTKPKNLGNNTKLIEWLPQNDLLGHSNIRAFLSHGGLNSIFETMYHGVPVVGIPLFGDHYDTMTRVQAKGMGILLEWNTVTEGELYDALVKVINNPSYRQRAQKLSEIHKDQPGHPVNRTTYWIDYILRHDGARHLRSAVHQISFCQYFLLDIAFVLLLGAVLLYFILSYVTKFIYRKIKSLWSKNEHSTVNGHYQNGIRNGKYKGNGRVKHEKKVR

[18] = Intrinsic clearance in human liver microsomes; format: ADME, Microsome; details: read-out: CLH
[19] = molecular target: T2, 2-hydroxyacylsphingosine 1-beta-galactosyltransferase (Homo sapiens, UniProt Q16880); assay: Inhibition of UGT8 in human OE19 cells assessed as redcution in SFT accumulation measured after 72 hrs by LC-MS/MS analysis; format: cell-based
T2 sequence (Q16880 whole entry): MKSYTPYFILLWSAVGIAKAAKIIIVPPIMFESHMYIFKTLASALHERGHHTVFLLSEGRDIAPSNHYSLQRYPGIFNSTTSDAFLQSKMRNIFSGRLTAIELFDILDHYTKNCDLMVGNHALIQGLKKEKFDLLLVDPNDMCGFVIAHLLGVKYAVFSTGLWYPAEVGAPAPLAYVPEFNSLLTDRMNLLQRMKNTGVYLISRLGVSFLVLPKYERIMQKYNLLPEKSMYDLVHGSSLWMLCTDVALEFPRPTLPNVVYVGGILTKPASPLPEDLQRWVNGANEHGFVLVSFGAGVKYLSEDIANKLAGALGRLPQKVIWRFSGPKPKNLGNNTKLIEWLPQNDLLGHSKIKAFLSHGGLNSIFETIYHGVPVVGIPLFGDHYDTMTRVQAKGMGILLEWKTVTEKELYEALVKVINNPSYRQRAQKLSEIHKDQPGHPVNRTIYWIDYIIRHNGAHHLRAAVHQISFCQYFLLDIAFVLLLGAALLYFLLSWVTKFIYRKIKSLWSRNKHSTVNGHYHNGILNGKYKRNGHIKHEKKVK

[20] = Cmax in Sprague-Dawley rat at 3 mg/kg, po; format: ADME, organism-based; set-up: route oral, dose 3 mg/kg; details: in vivo
[21] = In vivo inhibition of SFT de novo synthesis in PN14 to PN21 days C57BL/6 mouse brain assessed as reduction in [13C] galactose incorporation into SFT at 10 mg/kg, po bid for 2 days and single dose at day 3 treated 1 hr prior to intraperitoneal injection of [13C] galactose measured after 5 hrs of last dose relative to control; format: functional; details: C57BL/6, 72 h, time 3 day
[22] = molecular target: T3, UDP-glucuronosyltransferase 2B15 (Homo sapiens, UniProt P54855); assay: Inhibition of UGT2B15 (unknown origin); format: ADME
T3 sequence (P54855 whole entry): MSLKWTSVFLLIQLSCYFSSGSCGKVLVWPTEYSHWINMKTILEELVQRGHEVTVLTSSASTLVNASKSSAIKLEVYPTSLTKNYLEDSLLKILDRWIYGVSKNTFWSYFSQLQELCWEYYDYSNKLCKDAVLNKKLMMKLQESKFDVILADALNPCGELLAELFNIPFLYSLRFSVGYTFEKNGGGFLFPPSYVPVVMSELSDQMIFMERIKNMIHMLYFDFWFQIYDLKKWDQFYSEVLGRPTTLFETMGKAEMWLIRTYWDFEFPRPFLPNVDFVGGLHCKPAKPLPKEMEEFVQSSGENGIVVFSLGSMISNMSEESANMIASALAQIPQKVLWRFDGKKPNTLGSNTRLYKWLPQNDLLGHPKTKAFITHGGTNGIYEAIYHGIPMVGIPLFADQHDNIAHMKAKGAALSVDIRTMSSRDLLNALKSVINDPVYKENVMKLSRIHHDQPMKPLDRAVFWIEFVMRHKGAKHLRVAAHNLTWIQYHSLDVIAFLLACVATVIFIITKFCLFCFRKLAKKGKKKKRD

[23] = Volume of distribution at steady state in Beagle dog at 1 mg/kg, iv; format: ADME, organism-based, Canis lupus familiaris; details: in vivo, read-out: Vdss

half-life [1]: 1.13 h | concentration at 1 h [2]: 148 ng/mL | half-life [3]: 4.3 h | Vd [4]: 1.64 L/kg | clearance [5]: 24.7 mL/min/kg | half-life [7]: 13.6 h | Vd [10]: 1.52 L/kg | fraction unbound [11]: < 0.01 | AUC(0-t) [12]: 4190 ng·h/mL | bioavailability [15]: 40% | bioavailability [16]: 34% | IC50 [17]: 0.2 nM | microsomal CLint [18]: 73 µL/min/mg | IC50 [19]: 0.2 nM | Cmax [20]: 405 ng/mL | IC50 [22]: > 10000 nM | Vd [23]: 3.32 L/kg
SMILES: CNC(=O)c1csc2c(C(F)(F)F)cc(N3CCC(OC(=O)N[C@@H](C)COC(F)(F)F)CC3)nc12
ED50 [6]: < 3 mg/kg | inhibition in vivo at 1 mg/kg [8]: 43% | ED50 [9]: < 3 mg/kg | inhibition in vivo at 3 mg/kg [13]: 72% | inhibition in vivo at 30 mg/kg [14]: 90% | inhibition in vivo at 10 mg/kg [21]: 97%
